In the NIST ThermoML archive (doi:10.1021/je050020m):

Conditions: Liquid, Vibrating tube method

CCCCCCCCCC [decane]
Conditions | mass density [kg/m3]
313.09 K, 1048 kPa | 715.63
313.09 K, 2010 kPa | 716.43
313.09 K, 2997 kPa | 717.28
313.09 K, 4060 kPa | 718.18
313.09 K, 5029 kPa | 718.98
313.09 K, 6019 kPa | 719.8
313.09 K, 7016 kPa | 720.64
313.09 K, 8050 kPa | 721.47
313.09 K, 9000 kPa | 722.24
313.09 K, 10029 kPa | 723.06
313.09 K, 11016 kPa | 723.85
313.09 K, 12012 kPa | 724.63
313.09 K, 13027 kPa | 725.4
313.09 K, 14011 kPa | 726.15
313.09 K, 15010 kPa | 726.91
313.09 K, 16030 kPa | 727.65
313.09 K, 17016 kPa | 728.38
313.09 K, 18037 kPa | 729.1
313.09 K, 19000 kPa | 729.81
313.09 K, 20019 kPa | 730.5
313.09 K, 21014 kPa | 731.21
313.09 K, 22032 kPa | 731.92
313.09 K, 23021 kPa | 732.62
313.09 K, 24016 kPa | 733.33
313.09 K, 25012 kPa | 734.06
323.03 K, 1025 kPa | 707.94
323.03 K, 2017 kPa | 708.85
323.03 K, 3015 kPa | 709.76
323.03 K, 4018 kPa | 710.65
323.03 K, 5022 kPa | 711.53
323.03 K, 6021 kPa | 712.41
323.03 K, 7018 kPa | 713.31
323.03 K, 8022 kPa | 714.15
323.03 K, 9016 kPa | 715.01
323.03 K, 10012 kPa | 715.84
323.03 K, 11022 kPa | 716.67
323.03 K, 12015 kPa | 717.51
323.03 K, 13020 kPa | 718.33
323.03 K, 14011 kPa | 719.12
323.03 K, 15010 kPa | 719.9
323.03 K, 16019 kPa | 720.71
323.03 K, 17010 kPa | 721.46
323.03 K, 18013 kPa | 722.22
323.03 K, 19033 kPa | 723
323.03 K, 20022 kPa | 723.74
323.03 K, 21014 kPa | 724.45
323.03 K, 22023 kPa | 725.22
323.03 K, 23025 kPa | 725.93
323.03 K, 24016 kPa | 726.68
323.03 K, 25021 kPa | 727.42
332.95 K, 1022 kPa | 700.4
332.95 K, 2005 kPa | 701.33
332.95 K, 3025 kPa | 702.32
332.95 K, 4025 kPa | 703.25
332.95 K, 5018 kPa | 704.2
332.95 K, 6018 kPa | 705.12
332.95 K, 7019 kPa | 706.08
332.95 K, 8023 kPa | 706.96
332.95 K, 9021 kPa | 707.89
332.95 K, 10017 kPa | 708.78
332.95 K, 11033 kPa | 709.68
332.95 K, 12023 kPa | 710.54
332.95 K, 13009 kPa | 711.42
332.95 K, 14016 kPa | 712.21
332.95 K, 15025 kPa | 713.05
332.95 K, 16011 kPa | 713.87
332.95 K, 17017 kPa | 714.69
332.95 K, 18016 kPa | 715.5
332.95 K, 19015 kPa | 716.28
332.95 K, 20029 kPa | 717.09
332.95 K, 21001 kPa | 717.84
332.95 K, 22034 kPa | 718.63
332.95 K, 23017 kPa | 719.41
332.95 K, 24023 kPa | 720.18
332.95 K, 25002 kPa | 720.95
343.8 K, 1014 kPa | 692.56
343.8 K, 2027 kPa | 693.64
343.8 K, 3016 kPa | 694.64
343.8 K, 4020 kPa | 695.65
343.8 K, 5016 kPa | 696.67
343.8 K, 6019 kPa | 697.68
343.8 K, 7026 kPa | 698.66
343.8 K, 8022 kPa | 699.65
343.8 K, 9014 kPa | 700.58
343.8 K, 10017 kPa | 701.53
343.8 K, 11022 kPa | 702.48
343.8 K, 12021 kPa | 703.39
343.8 K, 13011 kPa | 704.27
343.8 K, 14013 kPa | 705.16
343.8 K, 15025 kPa | 706.05
343.8 K, 16019 kPa | 706.94
343.8 K, 17010 kPa | 707.79
343.8 K, 18023 kPa | 708.61
343.8 K, 19030 kPa | 709.47
343.8 K, 20008 kPa | 710.25
343.8 K, 21017 kPa | 711.1
343.8 K, 22035 kPa | 711.92
343.8 K, 23004 kPa | 712.73
343.8 K, 24008 kPa | 713.53
343.8 K, 25103 kPa | 714.44
352.71 K, 2132 kPa | 686.04
352.71 K, 3053 kPa | 687.07
352.71 K, 4028 kPa | 688.15
352.71 K, 5028 kPa | 689.19
352.71 K, 6065 kPa | 690.28
352.71 K, 7007 kPa | 691.26
352.71 K, 8041 kPa | 692.36
352.71 K, 9064 kPa | 693.4
352.71 K, 10047 kPa | 694.38
352.71 K, 11019 kPa | 695.38
352.71 K, 12012 kPa | 696.31
352.71 K, 13031 kPa | 697.31
352.71 K, 14010 kPa | 698.18
352.71 K, 15014 kPa | 699.14
352.71 K, 16012 kPa | 700.05
352.71 K, 17008 kPa | 700.95
352.71 K, 17959 kPa | 701.8
352.71 K, 19020 kPa | 702.7
352.71 K, 20044 kPa | 703.6
352.71 K, 21044 kPa | 704.46
352.71 K, 22024 kPa | 705.31
352.71 K, 23009 kPa | 706.13
352.71 K, 24014 kPa | 707
352.71 K, 25000 kPa | 707.86
362.63 K, 2054 kPa | 678.23
362.63 K, 3010 kPa | 679.34
362.63 K, 4132 kPa | 680.68
362.63 K, 5020 kPa | 681.68
362.63 K, 6026 kPa | 682.79
362.63 K, 7042 kPa | 683.95
362.63 K, 8057 kPa | 685.06
362.63 K, 9014 kPa | 686.08
362.63 K, 10034 kPa | 687.17
362.63 K, 10999 kPa | 688.24
362.63 K, 12014 kPa | 689.26
362.63 K, 13025 kPa | 690.26
362.63 K, 13992 kPa | 691.22
362.63 K, 15019 kPa | 692.24
362.63 K, 16004 kPa | 693.18
362.63 K, 17008 kPa | 694.11
362.63 K, 18002 kPa | 695.04
362.63 K, 19037 kPa | 696.02
362.63 K, 20027 kPa | 696.93
362.63 K, 21030 kPa | 697.8
362.63 K, 22003 kPa | 698.73
362.63 K, 23027 kPa | 699.61
362.63 K, 24046 kPa | 700.55
362.63 K, 25011 kPa | 701.39
